The structures appear in SMILES notation. Where two headings read alike, the source gives them in different places.

The assay deals with apomorphine-induced stereotyped behavior. Nature of the assay: Activity in reducing apomorphine-induced stereotyped behavior (method of Janssen et al.). Type of assay: in vivo, rats (male, Wistar). The note with it: sc. The source says: In the following Experiment I, the compounds of this invention were compared with chlorpromazine which is a typical antipsychotic and other known structurally similar compounds in their activity in reducing apomorphine-induced stereotyped behavior.

The mark [1] stands for this setting: test sample subcutaneous to rat, after 30 minutes 1.25 mg/kg apomorphine intravenously, observed 5, 10 and 20 minutes later, read-out: ED50.

Regarding `CCN1CCCC1CNC(=O)c1cc(S(N)(=O)=O)ccc1OC` (stereo not shown) [Sulpiride], the ED50 under setting [1] is above 100 mg/kg.

Compound `CN(C)CCCN1c2ccccc2Sc2ccc(Cl)cc21` [Chlorpromazine] gave an ED50 (Rattus norvegicus) of 2.5 mg/kg.

In the case of `CCN1CCCC1CNC(=O)c1cc(S(=O)(=O)CC)ccc1OC` (stereo not shown) [Sultopiride], under setting [1], the ED50 turned out to be 18 mg/kg.

On to `CNc1cc(OC)c(C(=O)NC2CCN(Cc3ccccc3)C2C)cc1Cl` (stereo not shown) [Example 3, N-(1-benzyl-2-methylpyrrolidin-3-yl)-5-chloro-2-methoxy-4-methylaminobenzamide], for which the ED50 under setting [1] was 0.01 mg/kg.

Values taken from US4210660A, “Benzamide derivatives” (Yamanouchi Pharmaceutical Co., Ltd., priority 1978, dated 1980).
